Where two headings read alike, the source gives them in different places.
What was measured:
[1] = tested on: MCF-10A normal breast epithelial cells; assay: MTT cytotoxicity assay, MCF10A; format: cell-based, human; settings: 72 h
Procedure: (§1) The cytotoxic effects of the compounds were evaluated by the MTT [3-(4,5-dimethylthiazol-2-yl)-2,5-diphenyltetrazolium bromide] assay. The cells (50,000 cells/mL) were treated with various concentrations of the compounds (0.94–30 μM) in a 96-well plate for 72 h. Untreated controls were also included. Following incubation, 20 μL of 5 mg/mL MTT solution was added to each well and incubated at 37 °C for 3 h. Next, 100 μL of DMSO was added to dissolve the purple precipitate of formazan crystal. The absorbance at 570 nm and 630 nm as reference wavelength was measured by a microplate reader (BioTek EL 800, United States).
(§2) Cell growth inhibition (%) = [1 - (ODTreated/OD Control)] × 100.

[2] = tested on: MCF-7 cells; assay: MTT cytotoxicity assay, MCF-7; format: cell-based, human
Procedure: as §1, §2

[3] = tested on: MDA-MB-231 cells; assay: MTT cytotoxicity assay, MDA-MB-231; format: cell-based, human; settings: for IC50: MTT
Procedure: as §1, with “The cells (50,000 cells/mL) were treated with various concentrations of the compounds (0.94–30 μM) in a 96-well plate for 72 h.” left out
as §2

[4] = tested on: A-549 cells; assay: MTT cytotoxicity assay, A-549; format: cell-based, human; settings: A-549, 72 h
Procedure: as §1, §2

[5] = tested on: HT-29 cells; assay: MTT cytotoxicity assay, HT-29; format: cell-based, human; settings: HT-29, 72 h
Procedure: as §1, §2

[6] = tested on: MDA-MB-231 cells; assay: Annexin V/PI flow cytometric analysis of mode of cell death; format: cell-based, human; settings: for percentage of viable cells, lower left quadrant (Annexin-V-/PI-): 24 h; for percentage of early apoptotic cells, lower right quadrant (Annexin-V+/PI-): 72 h
Procedure: Human Annexin V/PI Apoptosis Detection Kit I (BD Biosciences Pharmingen, Franklin Lakes, NJ, USA) was used to determine the mode of cell death induced by ampelopsin E. Briefly, the MDA-MB-231 cells were seeded at 150,000 cells per well in a 6-well plate. Next, the cells were treated with ampelopsin E (7.5–30 μM). The untreated cells were also included as a control. The cells were harvested and washed with 2 mL of ice-cold PBS. Subsequently, the samples were mixed with 100 μL of […] binding buffer on ice. Next, in the dark, 5 μL annexin V and 5 μL of propidium iodide (1 mg/mL) were added with 15 min of incubation on ice. Next, 400 μL of […] binding buffer was added to dilute the samples. The cells were analyzed by using FACS Calibur flow cytometer (Becton Dickinson, USA). The results were analysed by using FlowJo version 8.6 (Treestar Inc., San Carlos, CA).

[7] = tested on: mouse embryonic fibroblast NIH/3 T3 cells; assay: MTT cytotoxicity assay, NIH/3T3; format: cell-based; settings: 3T3, 72 h
Procedure: as §1, §2

[8] = tested on: MDA-MB-231 cells; assay: Morphological changes under inverted light microscope; format: cell-based, human
Procedure: Briefly, 150,000 cells per well of MDA-MB-231 cells were seeded in a 6-well plate and incubated for 24 h. Next, the cells were treated with ampelopsin E (7.5–30 μM) and further incubated for 72 h. The untreated cells were included as a control. The image was captured at 0, 24, 48 and 72 h at the same spot under an inverted microscope (Olympus, Japan).

[9] = tested on: HeLa cells; assay: MTT cytotoxicity assay, HeLa; format: cell-based, human; settings: 72 h
Procedure: as §1, §2

[10] = tested on: MDA-MB-231 cells; assay: Cell cycle analysis by flow cytometer; format: cell-based, human; settings: 15 and 30 μM; 24, 48 and 72 h; p < 0.05
Procedure: MDA-MB-231 cells were seeded at 800,000 cells per 75 cm^2 flask. Next, the cells were treated with ampelopsin E (7.5–30 μM). The untreated cells were also included as a control. The cells were incubated for 24, 48 and 72 h. Next, the cells were trypsinized, washed twice with ice cold PBS and collected. The cell pellet was fixed with ice-cold 70 % ethanol and stored at −20 °C. After a week, the cells were washed once again with ice-cold PBS. The cell pellet was mixed up with 250 μL Guava cell cycle reagents (EMD, Milliport Corporation, Hayward) and 300 μL PBS. The population of cells in each phase was measured by a flow cytometer (FACSCalibur, Becton Dickinson, USA). The results were analysed by using ModFit LT™ software.

[11] = tested on: MCF-7 cells; design: method as in Wibowo et al. [34]; settings: MCF-7, ampelopsin E from Dryobalanops beccarii; ref Wibowo et al. [34]; cited from earlier work

| Compound | IC50 [1] [µM] | IC50 ([2]; MCF-7, 72 h) [µM] | IC50 ([3]; MDA-MB-231, 72 h) [µM] | IC50 [4] [µM] | IC50 [5] [µM] | IC50 [7] [µM] | IC50 [9] [µM] | other results |
| --- | --- | --- | --- | --- | --- | --- | --- | --- |
| Oc1ccc(/C=C\c2c3c(cc4c2[C@@H](c2cc(O)cc(O)c2)[C@@H](c2ccc(O)cc2)O4)O[C@H](c2ccc(O)cc2)[C@@H]3c2cc(O)cc(O)c2)cc1 [Malaysianol D] | > 30 | > 30 | > 30 | – | – | – | – | – |
| ampelopsin E | > 30 | 29.5 ± 0.71 | 14.5 ± 0.71 | > 30 | > 30 | > 30 | > 30 | percentage of viable cells, lower left quadrant (Annexin-V-/PI-) ([6]; 7.5 μM): 75.3%; percentage of early apoptotic cells, lower right quadrant (Annexin-V+/PI-) ([6]; 7.5 μM): 12.9%; percentage of viable cells, lower left quadrant (Annexin-V-/PI-) ([6]; 15 μM): 69.0%; percentage of early apoptotic cells, lower right quadrant (Annexin-V+/PI-) ([6]; 15 μM): 23.6%; percentage of viable cells, lower left quadrant (Annexin-V-/PI-) ([6]; 30 μM): 57.1%; percentage of early apoptotic cells, lower right quadrant (Annexin-V+/PI-) ([6]; 30 μM): 33.9%; mode of cell death ([6]; 7.5-30 μM): induced apoptosis; morphological changes ([8]; 7.5 μM): membrane blebbing; morphological changes ([8]; 15 μM): cell shrinkage; morphological changes ([8]; 30 μM, 48 and 72 h): Cell detachment, cell shrinkage and formation apoptotic bodies; cell cycle arrest [10]: increase in G2/M population; cell viability ([3]; 15–30 μM, p < 0.05): significant reduction; IC50 ([3]; MDA-MB-231, 24 h): 30 ± 0.13 µM; IC50 ([3]; MDA-MB-231, 48 h): 16 ± 2.01 µM; IC50 ([3]; MDA-MB-231, 72 h, listed as ampelopsin E): < 15 µM; IC50 [11]: 21 µM |
| Oc1ccc([C@@H]2c3c(O)cc(O)cc3[C@@H]3c4c(O)cc(O)cc4[C@H]2[C@H]3c2ccc(O)cc2)cc1 [Ampelopsin F, ampelopsin F] | – | > 30 | > 30 | > 30 | > 30 | > 30 | > 30 | – |
| Oc1ccc(/C=C/c2c3c(cc4c2[C@@H](c2cc(O)cc(O)c2)[C@H](c2ccc(O)cc2)O4)O[C@H](c2ccc(O)cc2)[C@H]3c2cc(O)cc3c2[C@@H](c2cc(O)cc(O)c2)[C@H](c2ccc(O)cc2)O3)cc1 [Flexuosol A, flexuosol A] | > 30 | > 30 | 27.5 ± 3.54 | > 30 | > 30 | > 30 | > 30 | – |
| nepalensinol E | – | > 30 | > 30 | > 30 | > 30 | > 30 | > 30 | – |
| COc1cccc2c1C(=O)c1c(O)c3c(c(O)c1C2=O)C[C@@](O)(C(=O)CO)C[C@@H]3O[C@H]1C[C@H](N)[C@H](O)[C@H](C)O1 [Doxorubicin, reference compound] | – | – | – | – | – | – | – | IC50 ([1]; Homo sapiens, MCF-10A): > 10 µM; IC50 ([2]; Homo sapiens, MCF7, MCF-7, 72 h): 0.21 ± 0.27 µM; IC50 ([3]; Homo sapiens, MDA-MB-231, 72 h): 0.4 µM |
| O=C1O[C@@H]2[C@H](O)COC23O[C@@H](c2ccc(O)cc2)[C@H](c2cc(O)cc4c2[C@@H](c2cc(O)cc(O)c2)[C@H](c2ccc(O)cc2)O4)[C@@]13O (stereo partly drawn) [Laevifonol, laevifonol] | – | > 30 | > 30 | > 30 | > 30 | > 30 | > 30 | – |
| Malaysianol A | > 30 | > 30 | 23 ± 4.24 | – | – | – | – | – |

From article PMC5017001, “Induction of apoptosis and G2/M arrest by ampelopsin E from Dryobalanops towards triple negative breast cancer cells, MDA-MB-231” (BMC Complementary and Alternative Medicine, 2016)
